From patent publication US10668061B2, “Mouse with D4R iRNA in the intercalating cell mass of the amygdala” (POSTECH ACADEMY-INDUSTRY FOUNDATION, priority 2016, dated 2020)

Columns and labels:
dorsal ITC neurons [1] = assay: STDP-induced LTD in dorsal ITC in amygdala slices after weak fear conditioning; type: cell-based, mice; settings: for induction of LTD after weak fear conditioning: wild-type mice, slices after weak fear conditioning, drug applied to slices
Description: (§1) Fear conditioning trainings were conducted in context A within sound-attenuating conditions (Panlab, Spain). Tone CS (conditioned stimulus) was delivered with a speaker while electric foot shock US (unconditioned stimulus) was applied through a floor grid attached to a shock generator (Panlab). The chambers were also equipped with infrared webcams connected to a personal computer to store animal behavior. Mice were placed in the context A for 2 minutes of acclimation and were then presented with auditory tone (CS: 3 kHz, 80 dB for 30 sec) that were co-terminated with electric foot shocks (US: 0.4 or 0.8 mA for 0.5 sec). Total 8 CS-US pairs were presented in pseudorandom intertrial intervals (varied from 60 to 120 sec). 24 hours after fear conditioning, mice were placed in context B to assess the recall of fear memory by being re-exposed to CS, but without US for 2 minutes.
(§2) To compare mPSCs without or after STDP, KCl-based and K-gluconate-based internal solutions were used for recording mIPSCs and mEPSCs, respectively. K-gluconate based solution was also used to record EPSCs and IPSCs evoked by interleaved stimulation. Series resistance (10-30 MΩ) was monitored throughout all experiments. mEPSCs were recorded at −70 mV holding potential in the presence of 1 μM tetrodotoxin (TTX) and 100 μM picrotoxin (Tocris, UK) while mIPSCs were measured at −70 mV in the presence of 1 μM TTX, 25 μM NBQX, and 50 μM 2-amino-5-phosphonovaleric acid (APV, Tocris). Miniature PSCs were analyzed with MiniAnalysis (Synaptosoft, Fort Lee, N.J.) or Clampfit 10.1 software (Molecular Devices). For PSC recordings with interleaved stimulation, the holding potential was briefly (˜40 ms) changed from −70 mV to +10 mV to reach the reversal potential of EPSC for isolation of putative IPSCs. For STDP experiments, stimulus intensity was adjusted to elicit EPSPs displaying 25%-30% of the maximum amplitudes. […]

dorsal ITC neurons [2] = assay: Disynaptic IPSP input-output curves in dorsal ITC of CORT-treated mice; type: cell-based; settings: vehicle-treated significantly increased
Description: To induce PTSD-like memory impairment, corticosterone (CORT, 5 mg/kg) or vehicle (saline, 0.9% NaCl) was intraperitoneally (i.p.) injected immediately after fear conditioning as previously described. The cue-conditioning group underwent weak fear conditioning with the previously-described CS-US pairing paradigm in context A and was tested for fear recall toward the cue in context B at the next day.
To obtain mechanistic insights into the LTD impairment, we constructed the input-output curves of evoked disynaptic IPSPs. […] Thus, the LTD deficit in CORT-treated mice appears to result from the impaired augmentation of inhibitory inputs to the dorsal ITC neurons.

[3] = system: mice that underwent weak fear conditioning; assay: Corticosterone-induced PTSD-like memory impairment after weak fear conditioning (freezing); type: in vivo; settings: CORT 5 mg/kg i.p.
Description: as §1, with “minutes. […]” for “minutes.”
To assess contextual fear memory from cue conditioned animals, the mice were placed again in context A 2 hours after termination of the first recall test and then duration of freezing was measured for 2 minutes without presentation of the auditory cue. The mice were placed in context B 2 hours after termination of the first recall test and the freezing time during presentation of the auditory cue was measured for 2 minutes.

dorsal ITC neurons [4] = assay: STDP-induced DA-dependent LTD (DA-LTD) in dorsal ITC neurons, amygdala slice whole-cell recordings; type: cell-based, mice; settings: for effect on DA-LTD: STDP protocol in presence of DA, antagonists in optimal concentrations selective for each receptor, naive mice; for induction of LTD at the dorsal ITC by receptor agonist: STDP protocol, agonist in place of DA
dorsal ITC neurons [5] = system: dorsal ITC neurons
ITC neurons = assay: Paired recording of unitary IPSCs (uIPSCs) between synaptically coupled ITC neurons
D4R at the dorsal ITC = target: T1, D4R at the dorsal ITC (Mus musculus, UniProt P51436); assay: Weak fear conditioning after bilateral drug infusion into the dorsal ITC (freezing); type: in vivo, mice; settings: 500 nM, 0.5 μl bilaterally into dorsal ITC 20 minutes before fear conditioning; vs vehicle
T1 construct: endogenous in cells; host or cells: neurons of the mouse brain in vivo (dorsal ITC of the amygdala); mice from Jackson Laboratory
T1 sequence (P51436 1-387): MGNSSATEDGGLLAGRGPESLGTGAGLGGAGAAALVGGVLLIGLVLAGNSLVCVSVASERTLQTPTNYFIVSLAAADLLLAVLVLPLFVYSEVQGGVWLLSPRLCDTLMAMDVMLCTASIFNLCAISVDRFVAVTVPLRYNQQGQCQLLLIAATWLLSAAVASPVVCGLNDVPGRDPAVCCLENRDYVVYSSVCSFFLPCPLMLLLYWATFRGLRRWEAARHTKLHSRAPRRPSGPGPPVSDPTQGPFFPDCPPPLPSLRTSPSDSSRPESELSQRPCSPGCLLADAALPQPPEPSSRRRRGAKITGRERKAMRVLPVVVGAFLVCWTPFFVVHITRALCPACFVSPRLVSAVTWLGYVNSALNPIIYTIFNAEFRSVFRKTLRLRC
Description: Guide cannulae were implanted bilaterally (26 gauge, Plastics One, Roanoke, Va.) aimed into the dorsal ITC areas in the coordinates, AP−1.4 mm, ML±3.2 mm, DV−4.2 mm from the bregma, and were fixed in the skull with dental cement. The cannulae remained capped with internal dummy cannulae (33 gauges, Plastics One) after surgery. Animals were individually housed and allowed to recover at least for 1 week after surgery. The mice bilaterally received 0.5 μl of either L-745870 or vehicle through the injection cannula (33 gauge, Plastics One) connected to a 10-μl Hamilton syringe for 5 minutes at a rate of 0.1 μl/min using microinfusion pump (Harvard Apparatus, Holliston, Mass.) 20 minutes before fear conditioning. L-745870 was dissolved to 500 nM in 0.9% saline just before the infusion. Mice were kept with injector cannulae for additional 5 minutes after the end of infusion and then were subjected to fear conditioning. […] The subject mice were transcardially perfused right after the last behavioral tests and analyzed for the injection loci. […]
If DA-LTD at the dorsal ITC is a synaptic mechanism that regulates neural circuits conveying fear memory, manipulation of D4R activity or synaptic plasticity at the dorsal ITC should affect fear memory. […] We injected either vehicle or L-745870 bilaterally into the dorsal ITC areas and then assessed acquisition and expression of fear memory (FIG. 5A).

dorsal ITC neurons [6] = assay: STDP in dorsal ITC neurons of naive slices with or without GABAA receptor blockade; type: cell-based, mice; settings: +4- and +6-ms interval delays; not in absence of picrotoxin
Description: as §2, with “amplitudes. After obtaining stable baseline recording, 80 presynaptic stimuli were delivered at 2 Hz via metal stimulating electrode placed in LA while paired with action potentials induced by injection of depolarizing current to postsynaptic neurons. Quantal contents were estimated by obtaining the inverse square of the coefficient of variation (1/CV^2). […].” for “amplitudes.”

C[C@]12C[C@H](O)[C@H]3[C@@H](CCC4=CC(=O)CC[C@@]43C)[C@@H]1CC[C@@H]2C(=O)CO [CORT, corticosterone]
induction of LTD in dorsal ITC of CORT-treated mice (dorsal ITC neurons [1]; CORT 5 mg/kg i.p. after conditioning, regardless of fear conditioning): LTD could not be triggered | disynaptic IPSPs after weak fear conditioning (dorsal ITC neurons [2]): not altered | freezing to the context after cue conditioning only [3]: increased freezing levels | freezing to the conditioned cue 24 hr after weak fear conditioning ([3]; vs vehicle-injected, cue or context pairing): higher freezing levels

NCCc1ccc(O)c(O)c1 [DA, Dopamine]
induction of LTD by the STDP protocol in the presence of DA (dorsal ITC neurons [4]; DA 30 mM): LTD was readily induced | changes in resting membrane potentials (RMPs) and excitability (dorsal ITC neurons [5]; DA 30 mM, before and after application): negligible changes | synaptic transmission on bath application alone (dorsal ITC neurons [5]; bath application of DA alone, no STDP): did not alter synaptic transmission

Nc1nc2c(ncn2[C@@H]2O[C@H](COP(=O)(O)OP(O)(O)=S)[C@@H](O)[C@H]2O)c(=O)[nH]1 [GDPβS]
LTD-induced increment of uIPSC amplitude, infused into postsynaptic ITC neurons (ITC neurons; GDPβS 0.5 mM in internal solution, postsynaptic neuron): not | LTD-induced increment of uIPSC amplitude, infused into presynaptic ITC neurons (ITC neurons; GDPβS 0.5 mM in internal solution, presynaptic neuron): blocked

COc1ccccc1N1CCN(CCCCNC(=O)c2ccc(-c3ccc(C(C)=O)cc3)cc2)CC1 [GR-103691]
effect on DA-LTD (dorsal ITC neurons [4]): did not affect DA-LTD

OC1(c2ccc(Cl)cc2)CCN(Cc2c[nH]c3ccccc23)CC1 [L-741626]
effect on DA-LTD (dorsal ITC neurons [4]): did not affect DA-LTD

Clc1ccc(N2CCN(Cc3c[nH]c4ncccc34)CC2)cc1 [L-745870]
induction of LTD after weak fear conditioning (dorsal ITC neurons [1]): interfered with the induction of LTD | effect on DA-LTD (dorsal ITC neurons [4]): abolished DA-LTD | freezing at 24 hr after weak fear conditioning (D4R at the dorsal ITC): significantly higher levels of freezing | freezing levels during acquisition (D4R at the dorsal ITC): comparable freezing levels

CCCN1CCO[C@@H]2c3cc(O)ccc3OC[C@H]21 [PD-128907]
induction of LTD at the dorsal ITC by receptor agonist (dorsal ITC neurons [4]): did not

Cc1cccc(C(=O)NCN2CCN(c3ccccc3C#N)CC2)c1 [PD-168077, N-([4-(2-cyanophenyl)piperazine-1-yl]methyl)-3-methylbenzamide]
amplitude of uIPSCs when LTD was induced (ITC neurons; current injection to postsynaptic ITC neurons while stimulating LA in presence of PD-168077): markedly increased | induction of LTD at the dorsal ITC by receptor agonist (dorsal ITC neurons [4]): allowed for the induction of LTD

CC#C[C@]1(O)CC[C@H]2[C@@H]3CCC4=CC(=O)CCC4=C3[C@@H](c3ccc(N(C)C)cc3)C[C@@]21C [RU38486]
induction of LTD after weak fear conditioning (dorsal ITC neurons [1]): blocked | effect on DA-LTD (dorsal ITC neurons [4]): blocked

Oc1cc2c(cc1O)C(c1ccccc1)CNCC2 (stereo not shown) [SKF-38393]
induction of LTD at the dorsal ITC by receptor agonist (dorsal ITC neurons [4]): did not

picrotoxin
synaptic plasticity by STDP in presence of GABAA receptor antagonist (dorsal ITC neurons [6]): LTP
